From ChEMBL document CHEMBL1201862, “PubChem BioAssay data set” (2004)
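Exposure lasted 48 hours, with cells grown in 96-well plates and compounds tested at five concentrations. GI50 marks 50% less growth.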 Calls of active or inactive are those of the source. Cut-off read from the data, not from the text of the source: active = GI50 up to about 1.1 µM and inactive = higher.

What was measured:
Test in all cases: growth of human tumour cells (NCI), 48 h
[1] = test system: 786-0
[2] = test system: A498
[3] = test system: ACHN
[4] = test system: BT-549
[5] = test system: CCRF-CEM
[6] = test system: HCC 2998
[7] = test system: HOP-92
[8] = test system: Hs-578T
[9] = test system: K562
[10] = test system: MCF7
[11] = test system: MDA-MB-231
[12] = test system: Malme-3M
[13] = test system: OVCAR-4
[14] = test system: OVCAR-5
[15] = test system: PC-3
[16] = test system: SF-295
[17] = test system: SK-MEL-28
[18] = test system: SN12C
[19] = test system: SNB-19
[20] = test system: T47D

Structure (SMILES) | GI50 [1] | GI50 [2] | GI50 [3] | GI50 [4] | GI50 [5] | GI50 [6] | GI50 [7] | GI50 [8] | GI50 [9] | GI50 [10] | GI50 [11] | GI50 [12] | GI50 [13] | GI50 [14] | GI50 [15] | GI50 [16] | GI50 [17] | GI50 [18] | GI50 [19] | GI50 [20]
Cn1cnc([N+](=O)[O-])c1Sc1nc(N)nc2c1ncn2Cc1ccccc1 | 19 µM (inactive) | 25 µM (inactive) | 15.3 µM (inactive) | 22.1 µM (inactive) | 13.9 µM (inactive) | 15.9 µM (inactive) | 12 µM (inactive) | 20.5 µM (inactive) | 20.5 µM (inactive) | 35.4 µM (inactive) | 19.7 µM (inactive) | 13.2 µM (inactive) | 20.8 µM (inactive) | 23.2 µM (inactive) | 11.6 µM (inactive) | 44.9 µM (inactive) | 20.5 µM (inactive) | 15.8 µM (inactive) | 42.7 µM (inactive) | 13.8 µM (inactive)
COc1cccc(NC(=O)CC(=O)N2N=C(C)C(/N=N\c3ccc(S(=O)(=O)c4ccc(/N=N/C5C(=O)N(C(=O)CC(=O)Nc6cccc(OC)c6)N=C5C)cc4)cc3)C2=O)c1 (stereo not given) | > 100 µM (inactive) | > 100 µM (inactive) | > 100 µM (inactive) | > 100 µM (inactive) | > 100 µM (inactive) | > 100 µM (inactive) | > 100 µM (inactive) | > 100 µM (inactive) | > 100 µM (inactive) | > 100 µM (inactive) | > 100 µM (inactive) | 58.9 µM (inactive) | > 100 µM (inactive) | > 100 µM (inactive) | > 100 µM (inactive) | > 100 µM (inactive) | > 100 µM (inactive) | > 100 µM (inactive) | > 100 µM (inactive) | > 100 µM (inactive)
Cc1ccc(C2=NN=C3C(c4ccccc4)=Nc4ccccc4N3C2)cc1 | 6.56 µM (inactive) | > 53.1 µM (inactive) | 16.7 µM (inactive) | 20.6 µM (inactive) | 1.88 µM (inactive) | 19.6 µM (inactive) | 24.1 µM (inactive) | 9.16 µM (inactive) | 4.61 µM (inactive) | 8.38 µM (inactive) | 19.8 µM (inactive) | 5.38 µM (inactive) | 3.18 µM (inactive) | 18 µM (inactive) | 11.8 µM (inactive) | 12 µM (inactive) | > 38 µM (inactive) | 15.5 µM (inactive) | 16.9 µM (inactive) | 27.2 µM (inactive)
CCCCCCCCCCCC(=O)NCc1ccc(OC(=O)CCCCCCCCCCC)c(OC)c1 | > 100 µM (inactive) | > 100 µM (inactive) | > 100 µM (inactive) | > 100 µM (inactive) | 1.34 µM (inactive) | > 64.6 µM (inactive) | > 100 µM (inactive) | 56.4 µM (inactive) | > 83 µM (inactive) | 35.3 µM (inactive) | > 100 µM (inactive) | > 100 µM (inactive) | 34.2 µM (inactive) | > 100 µM (inactive) | 15.1 µM (inactive) | > 66.4 µM (inactive) | > 81.7 µM (inactive) | > 88.3 µM (inactive) | > 100 µM (inactive) | 32.2 µM (inactive)
CN(C)c1ccc(/C=C(\NC(=O)c2ccccc2)C(=O)NC(Cc2c[nH]c3ccccc23)C(=O)O)cc1 (stereo not given) | > 100 µM (inactive) | > 100 µM (inactive) | > 100 µM (inactive) | > 100 µM (inactive) | > 100 µM (inactive) | > 100 µM (inactive) | > 100 µM (inactive) | > 100 µM (inactive) | > 100 µM (inactive) | > 100 µM (inactive) | > 100 µM (inactive) | > 100 µM (inactive) | > 100 µM (inactive) | > 100 µM (inactive) | > 100 µM (inactive) | > 100 µM (inactive) | > 100 µM (inactive) | > 100 µM (inactive) | > 100 µM (inactive) | > 100 µM (inactive)
NCCSS(=O)(=O)CCN | > 100 µM (inactive) | > 100 µM (inactive) | > 100 µM (inactive) | > 100 µM (inactive) | > 100 µM (inactive) | > 100 µM (inactive) | > 100 µM (inactive) | > 100 µM (inactive) | > 100 µM (inactive) | > 100 µM (inactive) | > 100 µM (inactive) | > 100 µM (inactive) | > 100 µM (inactive) | > 100 µM (inactive) | > 100 µM (inactive) | > 100 µM (inactive) | > 100 µM (inactive) | > 100 µM (inactive) | > 100 µM (inactive) | > 100 µM (inactive)
COc1cc(/C=C2\N=C(c3ccccc3)N(/N=C3\C(=O)Nc4ccccc43)C2=O)cc(OC)c1OC | > 100 µM (inactive) | > 100 µM (inactive) | > 100 µM (inactive) | > 100 µM (inactive) | 37.1 µM (inactive) | > 100 µM (inactive) | 40.3 µM (inactive) | 54 µM (inactive) | > 100 µM (inactive) | > 100 µM (inactive) | > 100 µM (inactive) | 58.5 µM (inactive) | 61.9 µM (inactive) | > 100 µM (inactive) | > 100 µM (inactive) | > 100 µM (inactive) | > 100 µM (inactive) | > 100 µM (inactive) | > 100 µM (inactive) | > 100 µM (inactive)
O=C1Sc2cc3ccccc3cc2C(=O)Sc2cc3ccccc3cc21 | 15.4 µM (inactive) | > 100 µM (inactive) | 28.9 µM (inactive) | 32.3 µM (inactive) | 2.6 µM (inactive) | 21.3 µM (inactive) | 30.2 µM (inactive) | 44.6 µM (inactive) | 27 µM (inactive) | 32.4 µM (inactive) | > 54.6 µM (inactive) | 34.9 µM (inactive) | 23.2 µM (inactive) | 36.1 µM (inactive) | 33.9 µM (inactive) | > 87.3 µM (inactive) | 28.6 µM (inactive) | 23.2 µM (inactive) | 47.1 µM (inactive) | 23.3 µM (inactive)
CSC(=Nc1nnc(-c2ccc([N+](=O)[O-])cc2)s1)SC | 20.7 µM (inactive) | 31.4 µM (inactive) | 42.9 µM (inactive) | > 77.4 µM (inactive) | > 100 µM (inactive) | > 79.6 µM (inactive) | 9.25 µM (inactive) | 28.3 µM (inactive) | > 100 µM (inactive) | 36.6 µM (inactive) | > 58.5 µM (inactive) | > 74.1 µM (inactive) | 45.8 µM (inactive) | > 100 µM (inactive) | > 41.9 µM (inactive) | 18.5 µM (inactive) | 77.4 µM (inactive) | 52.2 µM (inactive) | 23.9 µM (inactive) | 17.8 µM (inactive)
CC(CNC(N)=O)NC(N)=O (stereo not given) | > 100 µM (inactive) | > 100 µM (inactive) | > 100 µM (inactive) | > 100 µM (inactive) | > 100 µM (inactive) | > 100 µM (inactive) | > 100 µM (inactive) | > 100 µM (inactive) | > 100 µM (inactive) | > 100 µM (inactive) | > 100 µM (inactive) | > 100 µM (inactive) | > 100 µM (inactive) | > 100 µM (inactive) | > 100 µM (inactive) | > 100 µM (inactive) | > 100 µM (inactive) | > 100 µM (inactive) | > 100 µM (inactive) | > 100 µM (inactive)
Cc1c(C(=O)Nc2ccccc2)nnn1-c1ccnc2cc(C(F)(F)F)ccc12 | 74 µM (inactive) | 82.8 µM (inactive) | 54.7 µM (inactive) | > 100 µM (inactive) | 39.4 µM (inactive) | 38.1 µM (inactive) | 24.9 µM (inactive) | > 100 µM (inactive) | 37.2 µM (inactive) | 56.5 µM (inactive) | 19.1 µM (inactive) | 37 µM (inactive) | 34.5 µM (inactive) | > 100 µM (inactive) | 30.1 µM (inactive) | 46.7 µM (inactive) | > 100 µM (inactive) | 53.2 µM (inactive) | 33.5 µM (inactive) | 32.4 µM (inactive)
COc1cc(C2C=C(c3ccccc3)Oc3cc4c(cc32)OCO4)cc(OC)c1OC (stereo not given) | 0.386 µM (active) | 0.495 µM (active) | 1.53 µM (inactive) | 0.632 µM (active) | 0.46 µM (active) | 0.341 µM (active) | 15 µM (inactive) | 0.348 µM (active) | 0.435 µM (active) | 0.409 µM (active) | 0.458 µM (active) | 0.527 µM (active) | 6.37 µM (inactive) | 0.585 µM (active) | 0.354 µM (active) | 0.124 µM (active) | 0.57 µM (active) | 0.675 µM (active) | 3.94 µM (inactive) | 2 µM (inactive)
O=c1[nH]c(=O)n(C2CC(O)C(CO)O2)cc1I (stereo not given) | > 100 µM (inactive) | > 100 µM (inactive) | > 100 µM (inactive) | > 100 µM (inactive) | 17.5 µM (inactive) | > 82.6 µM (inactive) | > 100 µM (inactive) | > 100 µM (inactive) | > 23.1 µM (inactive) | 18.5 µM (inactive) | > 100 µM (inactive) | > 100 µM (inactive) | > 100 µM (inactive) | > 100 µM (inactive) | > 100 µM (inactive) | > 100 µM (inactive) | > 100 µM (inactive) | 89.9 µM (inactive) | > 100 µM (inactive) | > 100 µM (inactive)
C=C(C)[C@H]1C2=CC(C)=C(O2)[C@@H](O)[C@H](C(=C)C)CCC2=C[C@H]1OC2=O [KALLOLIDE A] | > 100 µM (inactive) | > 100 µM (inactive) | > 100 µM (inactive) | > 100 µM (inactive) | > 100 µM (inactive) | > 100 µM (inactive) | > 100 µM (inactive) | > 100 µM (inactive) | > 100 µM (inactive) | > 100 µM (inactive) | > 100 µM (inactive) | > 100 µM (inactive) | > 100 µM (inactive) | > 100 µM (inactive) | > 100 µM (inactive) | > 100 µM (inactive) | > 100 µM (inactive) | > 100 µM (inactive) | > 100 µM (inactive) | > 100 µM (inactive)
